{
  "source": "patent US20260002166A1",
  "about": "“GENETIC ENGINEERING OF MARINE BACTERIA FOR BIOMATERIAL PRODUCTION, PROBIOTIC USE IN AQUACULTURE AND MARINE ENVIRONMENTAL RESTORATION” (San Diego State University (SDSU) Foundation, dba San Diego …, priority 2022, published 2026)",
  "key": {"Cobetia sp. MMG (NJS775)": {"test_system": "Cobetia sp. MMG (NJS775)", "assay": "Minimum inhibitory concentration of kanamycin", "assay_type": "cell-based", "details": "Wild type", "protocol": "(§1) • 1. Streak out marine microbes onto Marine Agar plates and incubate overnight at 25° C.-28° C. Some strains take longer to grow to single colonies. Incubation times longer than 24 hours may be required for some slower growing strains. Monitor growth in future steps accordingly.\n(§2) • 2. Inoculate a single colony into 5 mL Marine Broth (2216) media in the late afternoon/early evening. Incubate overnight at 25 C, shaking at 200 rpm.\n(§3) • 3. Measure optical density (OD600) of overnight culture growth and document. • 4. Pipette 100 μL of overnight culture from each strain onto Marine Agar plates containing either Strep (for background resistance), Kan (MIC), Gent (MIC) at each concentration (25 μg/mL, 50 μg/mL, 100 μg/mL and 200 μg/mL). • 5. Use beads or plate spreader to spread the culture evenly on the plate. Remove the beads and incubate overnight at 25° C. overnight.\n(§4) • 6. Observe and document growth on all concentration plates. For the MICs (Kan/Gent) identify the lowest concentration of media in which no colonies are observed. If there are no colonies at any concentration, screen lower concentrations of Kanamycin/Gentamicin in the media (i.e. 5, 10, 15, 20 μg/mL). • 7. For the Streptomycin Resistant strain, select a single colony from the highest dose of Streptomycin that has growth and streak it out onto a plate containing the same concentration and a plate containing the next highest concentration of antibiotics. Incubate overnight at 25 C.\n(§5) • 8. Observe and document growth on both the MIC plates (2 days old) and the Streptomycin resistance plates. If Streptomycin resistance is sustained at less than 200 μg/mL, then continue step 7, passaging the strains onto higher concentrations of antibiotics. Once robust growth occurs at 200 μg/mL, inoculate a single colony into 5 mL Marine Broth containing Strep 200 μg/mL and incubate 25° C. overnight, shaking at 200 rpm."}, "[1]": {"test_system": "Endozoicomonas montiporae CL-33 (NJS662)", "assay": "Minimum inhibitory concentration of kanamycin", "assay_type": "cell-based", "details": "Endozoicomonas montiporae CL-33, Wild type", "protocol": "as §1, §2, §3, §4, §5"}, "[2]": {"test_system": "Leisingera sp. 204H (NJS204, Wild type)", "assay": "Minimum inhibitory concentration of kanamycin", "assay_type": "cell-based", "protocol": "as §1, §2, §3, §4, §5"}, "[3]": {"test_system": "Nereida sp. MMG025 (NJS678)", "assay": "Minimum inhibitory concentration of kanamycin", "assay_type": "cell-based", "details": "Nereida sp. MMG025, Wild type", "protocol": "as §1, §2, §3, §4, §5"}, "[4]": {"test_system": "Phaeobacter gallaeciensis ATCC 700781 (DSM 26640) (NJS408, Wild type)", "assay": "Minimum inhibitory concentration of kanamycin", "assay_type": "cell-based", "details": "Phaeobacter gallaeciensis ATCC 700781, Wild type", "protocol": "as §1, §2, §3, §4, §5"}, "[5]": {"test_system": "Phaeobacter sp. HS012 (NJS491)", "assay": "Minimum inhibitory concentration of kanamycin", "assay_type": "cell-based", "details": "Phaeobacter sp. HS012, Wild type", "protocol": "as §1, §2, §3, §4, §5"}, "[6]": {"test_system": "Photobacterium mandapamensis svers.3.2 (MT002)", "assay": "Minimum inhibitory concentration of kanamycin", "assay_type": "cell-based", "details": "Photobacterium leiognathi, Photobacterium mandapamensis svers.3.2, Wild type", "protocol": "as §1, §2, §3, §4, §5"}, "[7]": {"test_system": "Pseudoalteromonas luteoviolacea HI1 (NJS005, StrR)", "assay": "Minimum inhibitory concentration of kanamycin", "assay_type": "cell-based", "details": "read-out: MIC Kan", "protocol": "as §1, §2, §3, §4, §5"}, "[8]": {"test_system": "Pseudoalteromonas sp. PS5 (NJS597, StrR)", "assay": "Minimum inhibitory concentration of kanamycin", "assay_type": "cell-based", "details": "read-out: MIC Kan", "protocol": "as §1, §2, §3, §4, §5"}, "[9]": {"test_system": "Ruegeria pomeroyi DSS-3 (NJS409)", "assay": "Minimum inhibitory concentration of kanamycin", "assay_type": "cell-based", "details": "Ruegeria pomeroyi DSS-3, Wild type", "protocol": "as §1, §2, §3, §4, §5"}, "Shimia sp. MMG (NJS302)": {"test_system": "Shimia sp. MMG (NJS302)", "assay": "Minimum inhibitory concentration of kanamycin", "assay_type": "cell-based", "details": "Wild type", "protocol": "as §1, §2, §3, §4, §5"}, "[10]": {"test_system": "Vibrio harveyi (NJS675, StrR)", "assay": "Minimum inhibitory concentration of kanamycin", "assay_type": "cell-based", "details": "read-out: MIC Kan", "protocol": "as §1, §2, §3, §4, §5"}, "[11]": {"test_system": "Pacific and Atlantic corals", "details": "synthesized TBP; cited from earlier work"}, "[12]": {"test_system": "two other types of invertebrate larvae", "details": "two other types of invertebrate larvae [29]; cited from earlier work"}, "phytoplankton": {"test_system": "phytoplankton", "details": "[31]; cited from earlier work"}, "sea urchin": {"test_system": "sea urchin", "details": "[32]; cited from earlier work"}},
  "data": [
    {"molecule": "NC[C@H]1O[C@H](O[C@H]2[C@H](O)[C@@H](O[C@H]3O[C@H](CO)[C@@H](O)[C@H](N)[C@H]3O)[C@H](N)C[C@@H]2N)[C@H](O)[C@@H](O)[C@@H]1O", "note": "[Kan, kanamycin]", "values": [
      {"measurement": "MIC", "setting": "Cobetia sp. MMG (NJS775)", "value": 200, "unit": "µg/mL"},
      {"measurement": "MIC", "setting": "[1]", "value": 100, "unit": "µg/mL"},
      {"measurement": "MIC", "setting": "[2]", "value": 200, "unit": "µg/mL"},
      {"measurement": "MIC", "setting": "[3]", "value": 200, "unit": "µg/mL"},
      {"measurement": "MIC", "setting": "[4]", "value": 300, "unit": "µg/mL"},
      {"measurement": "MIC", "setting": "[5]", "value": 300, "unit": "µg/mL"},
      {"measurement": "MIC", "setting": "[6]", "value": 400, "unit": "µg/mL"},
      {"measurement": "MIC", "setting": "[7]", "value": 200, "unit": "µg/mL"},
      {"measurement": "MIC", "setting": "[8]", "value": 200, "unit": "µg/mL"},
      {"measurement": "MIC", "setting": "[9]", "value": 300, "unit": "µg/mL"},
      {"measurement": "MIC", "setting": "Shimia sp. MMG (NJS302)", "value": 300, "unit": "µg/mL"},
      {"measurement": "MIC", "setting": "[10]", "value": 200, "unit": "µg/mL"}
    ]},
    {"molecule": "Brc1[nH]c(Br)c(Br)c1Br", "note": "[TBP, tetrabromopyrrole]", "values": [
      {"measurement": "Induction of coral metamorphosis", "setting": "[11]", "value": "induce robust metamorphosis"},
      {"measurement": "Metamorphosis in other invertebrate larvae", "setting": "[12]", "value": "not eliciting robust metamorphosis"},
      {"measurement": "Phytoplankton mortality", "setting": "phytoplankton", "value": "elicits phytoplankton mortality"},
      {"measurement": "Sea urchin development", "setting": "sea urchin", "value": "halts sea urchin development"}
    ]}
  ]
}
